pEC50: −log10 of the molar value. Like-named read-outs stand apart in the source and are kept apart here.

For assay [1], the system named is primary neuronal cultures from embryonic rat brains. The assay is described as follows: Rat oscillation assay (FLIPR, neuronal calcium oscillations). It is filed as cell-based. In a few lines: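 E18 Wistar rat cortical neurons cultured 8–10 days, loaded with 1 µM Fluo-8 AM, then kept in Mg2+-free HEPES-buffered HBSS (2 mM CaCl2, pH 7.4) to drive synchronized calcium oscillations. Fluorescence read at 1 Hz over 500 sec with or without XE-991, compound added at 250 sec; second acquisition 20 min after addition.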

Assay [2] concerns the target T1, Kv7.2/7.3 (human KCNQ2 and KCNQ3 genes) in HEK293 cells (Homo sapiens, UniProt O43525+O43526).
T1 construct: host or cells: HEK293
The experiment in a line: Kv7.2/3 assay (FLIPR potassium assay, agonist mode). Type of assay: cell-based. As to conditions: Kv7.2/7.3 activation, responses relative to Flupirtine. The method, then:
HEK293 cells were stably transfected with the appropriate ion channel cDNA(s) (human KCNQ2 and KCNQ3 genes). Cells were cultured in Dulbecco’s Modified Eagle Medium /Nutrient mixture F-12 (D-MEM/F-12) supplemented with 10% fetal bovine serum, 100 U/mL penicillin G sodium, 100 µg/mL streptomycin sulfate and selection antibiotics. FLIPR Test Procedure: For FLIPR assay, cells were plated in 384-well black clear-bottomed microtiter plates (BD Biocoat Poly-D-Lysine Multiwell Cell Culture Plate) at 15′000 to 30′000 cells per well. Cells were incubated at 37° C. overnight or until cells reached sufficient density in the wells (near confluent monolayer) to use in fluorescence assays. […] Assays were performed with the FLIPR potassium assay kit (Molecular Devices) according to the manufacturer’s instructions. Dye-loading: Growth media was removed and replaced with 20 µL of dye loading buffer for 60 min at room temperature. FLIPR Recording (agonist mode): Stock solutions of test compounds were prepared at a concentration of 33.3 mM in DMSO. 5 µL of 5x concentrated test, vehicle, or control compounds solutions prepared in the stimulation buffer (K^+-free buffer with 5 mM TI^+) were added to each well and fluorescence recording was continued for 5 min. The agonist effect (EC50 and % effect) of test or control compounds on Kv7 channels was determined as follows: Raw data was exported using Screenworks® 4.2 software and the fluorescence traces were analysed using Microsoft Excel (Microsoft Corp., Redmond, WA). The test compounds responses were expressed as % of maximum response of the control compound Flupirtine (Sigma-Aldrich), which was tested at concentrations ranging from 0.03 to 100 µM. Concentration-response data were fitted to a Hill equation. Non-linear least squares fits were made assuming a simple binding model. If appropriate, fits were weighted by the standard deviation. No assumptions about the fit parameters were made; the fit parameters were determined by the algorithm.

With `O=C(NCc1cccc(C(F)(F)F)c1)NC1CC(C(F)F)C1` (single isomer, unassigned) [Example 53, 1-(3-(Difluoromethyl)Cyclobutyl)-3-(3-(Trifluoromethyl)Benzyl)Urea], the 50% inhibitory concentration (IC50) (commonly the concentration that inhibits the measured activity by half) in assay [1] (20 min after compound addition, AUC of fluorescence, read-out: FLIPR: IC50 [nM] 20 min) came out at 295 nM; in assay [1] (acute phase, ratio of AUC fluorescence before and after compound addition, rat cortical neurons, Mg-free buffer, read-out: FLIPR: IC50 [nM] acute), 168 nM. In addition, the negative logarithm of the EC50 (pEC50) (commonly the EC50 on a negative log10 scale, so that one unit is a factor of ten) in assay [2] is 7.09.
On to `O=C(NCc1cccc(C(F)(F)F)c1)NC12CC(C(F)F)(C1)C2` [Example 47, 1-(3-Difluoromethyl-Bicyclo[1.1.1]Pent-1-yl)-3-(3-Trifluoromethyl-Benzyl)-Urea], for which the IC50 in assay [1] (Rattus norvegicus, 20 min, 20 min after compound addition, AUC of fluorescence, read-out: FLIPR: IC50 [nM] 20 min) is 160 nM; in assay [1] (Rattus norvegicus, Cortical neurone, acute phase, ratio of AUC fluorescence before and after compound addition, rat cortical neurons, Mg-free buffer, read-out: FLIPR: IC50 [nM] acute) it was 118 nM. Moreover, the pEC50 in assay [2] was 7.23.

These data come from US20230303486A1, “CYCLOBUTYL-UREA DERIVATIVES” (Idorsia Pharmaceuticals Ltd, priority 2020, published 2023).
